In patent US20050261298A1, “Methods of treating conditions associated with an Edg-7 receptor” (priority 2002, published 2005):

Assays:
[1] = biological target: T1, Edg-5 (Homo sapiens, UniProt O95136); assay: Calcium mobilization assay (FLIPR), agonist stimulation of calcium increase; assay type: cell-based; conditions: HTC cells expressing Edg-5; for stimulation of calcium increases, Edg-5: concentrations as high as 25 µM
T1 construct: expressed in transfected cells; host or cells: HTC rat hepatoma cells
T1 sequence (O95136 whole entry): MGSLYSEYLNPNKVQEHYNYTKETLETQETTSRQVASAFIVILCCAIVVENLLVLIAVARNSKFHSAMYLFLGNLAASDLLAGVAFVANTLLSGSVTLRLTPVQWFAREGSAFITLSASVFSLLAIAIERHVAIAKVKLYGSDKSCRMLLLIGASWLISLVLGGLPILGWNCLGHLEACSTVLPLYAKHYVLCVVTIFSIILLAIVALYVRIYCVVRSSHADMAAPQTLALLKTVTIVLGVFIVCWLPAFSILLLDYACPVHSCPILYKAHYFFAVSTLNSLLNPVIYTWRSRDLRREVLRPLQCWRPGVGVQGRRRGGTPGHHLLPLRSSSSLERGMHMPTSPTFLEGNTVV

[2] = biological target: T2, Edg-4 (Homo sapiens, UniProt Q9HBW0); assay: as above; assay type: cell-based; conditions: HTC cells expressing Edg-4; for stimulation of calcium increases, Edg-4: concentrations as high as 25 µM
Target sequence in this assay (Q9HBW0 1-340 limits assumed): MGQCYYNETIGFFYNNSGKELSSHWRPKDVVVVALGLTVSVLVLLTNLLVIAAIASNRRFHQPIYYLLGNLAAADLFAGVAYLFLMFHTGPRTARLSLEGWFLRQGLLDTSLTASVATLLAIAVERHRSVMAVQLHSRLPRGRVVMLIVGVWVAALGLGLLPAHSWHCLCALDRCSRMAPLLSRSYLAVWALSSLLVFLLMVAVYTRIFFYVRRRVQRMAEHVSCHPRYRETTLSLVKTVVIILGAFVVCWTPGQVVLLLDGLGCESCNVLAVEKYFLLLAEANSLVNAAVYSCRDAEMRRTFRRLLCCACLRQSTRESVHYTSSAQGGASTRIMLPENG

[3] = biological target: T3, Edg-3 (Homo sapiens, UniProt Q99500); assay: as above; assay type: cell-based; conditions: HTC cells expressing Edg-3; for stimulation of calcium increases, Edg-3: concentrations as high as 25 µM
T3 construct: expressed in transfected cells; host or cells: HTC rat hepatoma cells
T3 sequence (Q99500 whole entry): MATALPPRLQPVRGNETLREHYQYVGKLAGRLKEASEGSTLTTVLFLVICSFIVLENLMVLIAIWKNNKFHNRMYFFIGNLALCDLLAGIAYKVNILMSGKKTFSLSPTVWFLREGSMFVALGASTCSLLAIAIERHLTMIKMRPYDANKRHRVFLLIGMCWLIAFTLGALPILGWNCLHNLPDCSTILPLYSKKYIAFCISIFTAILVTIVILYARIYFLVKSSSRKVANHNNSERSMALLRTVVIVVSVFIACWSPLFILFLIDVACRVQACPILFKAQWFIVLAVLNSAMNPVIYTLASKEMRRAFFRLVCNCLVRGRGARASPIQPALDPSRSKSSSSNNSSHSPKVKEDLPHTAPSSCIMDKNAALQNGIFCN

[4] = biological target: T4, Edg-2 (Homo sapiens, UniProt Q92633); assay: as above; assay type: cell-based; conditions: HTC cells expressing Edg-2; for stimulation of calcium increases, Edg-2: concentrations as high as 25 µM
T4 construct: expressed in transfected cells; host or cells: HTC rat hepatoma cells
T4 sequence (Q92633 whole entry): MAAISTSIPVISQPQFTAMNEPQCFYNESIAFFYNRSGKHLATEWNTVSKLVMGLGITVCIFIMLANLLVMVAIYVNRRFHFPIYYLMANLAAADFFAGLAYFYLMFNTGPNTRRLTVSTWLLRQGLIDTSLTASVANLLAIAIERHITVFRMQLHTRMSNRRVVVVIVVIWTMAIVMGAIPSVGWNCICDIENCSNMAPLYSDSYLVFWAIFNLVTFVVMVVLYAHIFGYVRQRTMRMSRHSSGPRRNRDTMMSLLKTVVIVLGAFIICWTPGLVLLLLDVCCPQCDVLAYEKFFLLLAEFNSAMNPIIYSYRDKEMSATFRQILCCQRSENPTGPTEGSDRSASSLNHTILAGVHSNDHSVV

[5] = biological target: T5, Edg-1 (Homo sapiens, UniProt P21453); assay: as above; assay type: cell-based; conditions: HTC cells expressing Edg-1; for stimulation of calcium increases, Edg-1: concentrations as high as 25 µM
T5 construct: expressed in transfected cells; host or cells: HTC rat hepatoma cells
T5 sequence (P21453 whole entry): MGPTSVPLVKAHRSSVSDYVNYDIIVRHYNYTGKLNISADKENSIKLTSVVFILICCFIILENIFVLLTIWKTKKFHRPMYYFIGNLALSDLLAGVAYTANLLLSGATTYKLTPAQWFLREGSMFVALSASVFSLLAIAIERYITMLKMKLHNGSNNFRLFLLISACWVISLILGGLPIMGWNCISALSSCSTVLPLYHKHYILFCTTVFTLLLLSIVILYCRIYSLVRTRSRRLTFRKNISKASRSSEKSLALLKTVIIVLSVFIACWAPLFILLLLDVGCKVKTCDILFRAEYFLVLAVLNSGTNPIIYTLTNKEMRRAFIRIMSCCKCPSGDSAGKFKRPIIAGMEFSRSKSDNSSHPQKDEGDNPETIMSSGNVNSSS

[6] = biological target: T6, Edg-6 (Homo sapiens, UniProt O95977); assay: as above; assay type: cell-based; conditions: HTC cells expressing Edg-6; for stimulation of calcium increases, Edg-6: concentrations as high as 25 µM
T6 construct: expressed in transfected cells; host or cells: HTC rat hepatoma cells
T6 sequence (O95977 1-384): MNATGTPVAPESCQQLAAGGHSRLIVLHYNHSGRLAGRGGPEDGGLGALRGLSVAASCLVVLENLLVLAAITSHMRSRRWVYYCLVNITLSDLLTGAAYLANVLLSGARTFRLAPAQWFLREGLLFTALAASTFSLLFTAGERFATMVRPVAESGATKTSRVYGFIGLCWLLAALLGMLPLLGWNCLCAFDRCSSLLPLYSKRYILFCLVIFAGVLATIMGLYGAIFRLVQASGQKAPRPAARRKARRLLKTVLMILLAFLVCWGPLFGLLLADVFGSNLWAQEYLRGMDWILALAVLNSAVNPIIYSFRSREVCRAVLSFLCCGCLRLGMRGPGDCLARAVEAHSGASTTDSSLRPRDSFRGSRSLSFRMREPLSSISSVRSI

[7] = tested on: untransfected HTC cells; assay: Calcium mobilization assay (FLIPR), agonist stimulation in null cells; assay type: cell-based, rat; conditions: for EC50: Rattus norvegicus; for stimulation of calcium increases, untransfected HTC cells: concentrations as high as 25 µM
[8] = biological target: T7, human Edg 7 receptors (Homo sapiens, UniProt Q9UBY5); assay: Calcium mobilization assay (FLIPR), agonist stimulation of calcium increase; assay type: cell-based; conditions: for EC50 / specific activation of the Edg-7 receptor: HTC cells expressing human Edg 7; for Fold Selectivity: agonist selectivity for Edg-7 relative to other Edg receptors and null cells
T7 construct: expressed in transfected cells
T7 sequence (Q9UBY5 1-353): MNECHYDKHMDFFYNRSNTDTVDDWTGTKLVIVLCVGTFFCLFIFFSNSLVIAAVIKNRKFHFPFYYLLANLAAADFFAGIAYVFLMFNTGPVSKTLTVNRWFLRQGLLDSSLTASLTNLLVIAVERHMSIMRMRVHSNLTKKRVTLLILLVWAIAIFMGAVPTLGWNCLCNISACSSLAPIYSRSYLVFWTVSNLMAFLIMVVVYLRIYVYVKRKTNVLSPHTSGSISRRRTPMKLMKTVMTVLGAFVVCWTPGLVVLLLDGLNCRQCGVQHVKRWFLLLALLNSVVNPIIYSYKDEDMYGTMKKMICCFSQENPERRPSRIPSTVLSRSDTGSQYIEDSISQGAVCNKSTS
Procedure: (§1) The compounds were tested in HTC cells expressing human Edg 7 receptors. […] The compounds are tested in this recombinant system first, and subsequently tested in cell lines expressing Edg-7 (in addition to other Edg receptors).
(§2) LPA receptors such as Edg-7, couple to calcium effector pathways, and result in increases in intracellular calcium following receptor activation (An, 1998, J. Cell. Biochem Supp. 30-31:147-157). This biological response lends itself to a very efficient, high-throughput screen using a Fluorescence Imaging Plate Reader (FLIPR; Molecular Devices, Sunnyvale, Calif.). The FLIPR system is a real-time, cell-based assay system with continuous fluorescence detection using a cooled CCD camera. The FLIPR system was used to developing an Edg-7 receptor screen. Rat hepatoma cells stably expressing Edg-7 receptor were plated on 384-well plates and loaded with a calcium dye loading kit (Molecular Devices, Sunnyvale, Calif.) for 1 hour at room temperature. Cells were then placed on the FLIPR^384 (Molecular Devices, Sunnyvale, Calif.) and excited by an argon laser at […]. The data for the entire 384-well plate was updated every second. An integrated robotic pipettor allowed for simultaneous compound addition into each individual well in the plate

[9] = biological target: T8, Edg-8 (Homo sapiens, UniProt Q9H228); assay: as above; assay type: cell-based; conditions: HTC cells expressing Edg-8; for stimulation of calcium increases, Edg-8: concentrations as high as 25 µM
T8 construct: expressed in transfected cells; host or cells: HTC rat hepatoma cells
T8 sequence (Q9H228 whole entry): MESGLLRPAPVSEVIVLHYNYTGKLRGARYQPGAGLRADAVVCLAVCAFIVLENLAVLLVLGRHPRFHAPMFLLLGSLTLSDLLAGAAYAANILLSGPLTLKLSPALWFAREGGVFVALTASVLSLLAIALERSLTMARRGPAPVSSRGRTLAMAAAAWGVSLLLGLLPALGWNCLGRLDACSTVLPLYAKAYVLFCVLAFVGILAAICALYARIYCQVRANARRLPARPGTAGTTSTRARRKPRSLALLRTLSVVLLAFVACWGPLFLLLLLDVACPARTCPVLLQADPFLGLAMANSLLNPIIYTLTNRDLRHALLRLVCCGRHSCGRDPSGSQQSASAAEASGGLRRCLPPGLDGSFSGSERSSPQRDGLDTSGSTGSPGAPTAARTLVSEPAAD

[10] = biological target: T4, Edg-2; assay: Calcium mobilization assay (FLIPR), inhibition of LPA-stimulated calcium increase; assay type: cell-based; conditions: HTC cells expressing Edg-2
[11] = biological target: T7, human Edg 7 receptors; assay: Calcium mobilization assay (FLIPR), inhibition of LPA response; assay type: cell-based; conditions: for IC50: HTC cells expressing human Edg 7; for Fold Selectivity: inhibitory selectivity for Edg-7 relative to other Edg receptors
Procedure: as §1
The radioligand binding assays were conducted as described in Section 6.15 (Example 15).
as §2

[12] = biological target: T2, Edg-4; assay: Calcium mobilization assay (FLIPR), inhibition of LPA-stimulated calcium increase; assay type: cell-based; conditions: HTC cells expressing Edg-4
Target sequence in this assay (Q9HBW0 1-344 limits assumed): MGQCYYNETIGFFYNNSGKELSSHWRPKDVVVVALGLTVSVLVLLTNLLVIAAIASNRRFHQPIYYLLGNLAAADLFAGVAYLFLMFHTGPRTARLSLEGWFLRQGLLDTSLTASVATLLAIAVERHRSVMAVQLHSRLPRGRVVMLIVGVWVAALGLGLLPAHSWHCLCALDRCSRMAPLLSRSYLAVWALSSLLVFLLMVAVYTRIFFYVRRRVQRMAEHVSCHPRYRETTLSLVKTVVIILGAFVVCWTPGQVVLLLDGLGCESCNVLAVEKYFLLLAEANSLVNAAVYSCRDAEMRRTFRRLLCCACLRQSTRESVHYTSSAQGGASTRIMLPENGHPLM

[13] = biological target: T6, Edg-6; assay: Calcium mobilization assay (FLIPR), inhibition of S1P-stimulated calcium increase; assay type: cell-based; conditions: HTC cells expressing Edg-6
[14] = biological target: T1, Edg-5; assay: as above; assay type: cell-based; conditions: HTC cells expressing Edg-5
[15] = biological target: T3, Edg-3; assay: as above; assay type: cell-based; conditions: HTC cells expressing Edg-3
[16] = biological target: T5, Edg-1; assay: as above; assay type: cell-based; conditions: HTC cells expressing Edg-1
[17] = biological target: T8, Edg-8; assay: as above; assay type: cell-based; conditions: HTC cells expressing Edg-8

EC50 [1] | stimulation of calcium increases, Edg-5 [1] | EC50 [2] | stimulation of calcium increases, Edg-4 [2] | EC50 [3] | stimulation of calcium increases, Edg-3 [3] | EC50 [4] | stimulation of calcium increases, Edg-2 [4] | EC50 [5] | stimulation of calcium increases, Edg-1 [5] | EC50 [6] | stimulation of calcium increases, Edg-6 [6] | melting point | EC50 [8] | specific activation of the Edg-7 receptor [8] | Fold Selectivity [8] | EC50 [9] | stimulation of calcium increases, Edg-8 [9] | Compound | EC50 [7] | stimulation of calcium increases, untransfected HTC cells [7] | also measured
> 25 µM | did not stimulate | > 25 µM | did not stimulate | > 25 µM | did not stimulate | > 25 µM | did not stimulate | > 25 µM | did not stimulate | > 25 µM | did not stimulate | 103 to 105 °C | 1.61 µM | specifically activate | >15.5 Fold | > 25 µM | did not stimulate | Cc1cc(C)c2c(c1)Cc1ccccc1S2(=O)=O [Compound 133, 2,4-Dimethyl-9H-thioxanthene 10,10-dioxide] | > 25 µM | did not stimulate | –
> 25 µM | did not stimulate | > 25 µM | did not stimulate | > 25 µM | did not stimulate | > 25 µM | did not stimulate | > 25 µM | did not stimulate | > 25 µM | did not stimulate | 134 to 135 °C | 0.23 µM | specifically activate | >109 Fold | > 25 µM | did not stimulate | CCCCCC(CCCCC)=N/N=C1\NC(=O)C(CC(=O)O)S1 (stereo not drawn) [Compound 127, 4-Oxo-2-[(1-pentylhexylidene)hydrazono]thiazolidin-5-ylacetic acid] | > 25 µM | did not stimulate | –
– | – | – | – | – | – | – | – | – | – | – | – | 320 °C (dec.) | – | – | – | – | – | Cc1ccc(S(=O)(=O)N=C2NC(=O)/C(=C3/C(=O)Nc4ccccc43)S2)cc1 [Compound 105, 4-Methyl-N-[4-oxo-5-(2-oxo-1,2-dihydroindol-3-ylidene)thiazolidin-2-ylidene]-benzenesulfonamide] | – | – | IC50 [10]: > 20 µM; selective inhibition of the Edg-7 receptor (FIG. 1, FIG. 2) ([11]; HTC cells expressing Edg-7): exhibited selectivity; IC50 [11]: 0.52 µM; Fold Selectivity [11]: >38.5 Fold; IC50 [12]: > 20 µM; IC50 [13]: > 20 µM; IC50 [14]: > 20 µM; IC50 [15]: > 20 µM; IC50 [16]: > 20 µM; IC50 [17]: > 20 µM
> 25 µM | did not stimulate | > 25 µM | did not stimulate | > 25 µM | did not stimulate | > 25 µM | did not stimulate | > 25 µM | did not stimulate | > 25 µM | did not stimulate | 284 to 285 °C | 0.37 µM | specifically activate | >68 Fold | > 25 µM | did not stimulate | COc1ccc(-c2nc3ccc(C(=O)O)cc3nc2-c2ccc(OC)cc2)cc1 [Compound 129, 2,3-bis-(4-Methoxyphenyl) quinoxaline-6-carboxylic acid] | > 25 µM | did not stimulate | –
– | – | – | – | – | – | – | – | – | – | – | – | 272 °C (dec.) | – | – | – | – | – | O=C(O)COc1ccc(Br)cc1/C=C1\S/C(=N\c2ccc(Cl)cc2)NC1=O (racemic) [Compound 107, 4-Bromo-2-[2-(4-chlorophenylimino)-4-oxothiazolidin-5-ylidenemethyl]phenoxyacetic acid] | – | – | IC50 [10]: > 20 µM; IC50 [11]: 7.73 µM; Fold Selectivity [11]: >2.6 Fold; IC50 [12]: > 20 µM; IC50 [13]: > 20 µM; IC50 [14]: > 20 µM; IC50 [15]: > 20 µM; IC50 [16]: > 20 µM; IC50 [17]: > 20 µM
